Test results: ChEMBL document CHEMBL1124465, “Dynamics and thermodynamics of the counterion effect in a 7H-pyridocarbazole dimer (ditercalinium). Hypothesis of a nonbisintercalative binding mode to calf thymus DNA at high drug/base ratio” (J Med Chem, 1989)

Tests used:
Nucleic Acid [1] = assay: Monointeraction into calf thymus DNA at pH 5; assay type: nucleic-acid assay
Nucleic Acid [2] = assay: Monointeraction into calf thymus DNA at pH 7.4; assay type: nucleic-acid assay

COc1ccc2[nH]c3ccc4cc[n+](CCN5CCC(C6CCN(CC[n+]7ccc8ccc9[nH]c%10ccc(OC)cc%10c9c8c7)CC6)CC5)cc4c3c2c1
Ka (Nucleic Acid [1]): 5e+08 M⁻¹ | Ka (Nucleic Acid [2]): 2e+07 M⁻¹
